# Test results as given in patent US6995157B2, “Substituted 4,5-dihydro-1,2,4-triazin-3-ones, 1,2,4-triazin-3-ones, and their use as fungicides and insecticides” (priority 2000, dated 2006).
# Tests used:
# [1] = test system: Sphaerotheca fuliginea; conditions: in vivo
# [2] = test system: Pyricularia oryzae; type: in vivo; conditions: protectant, 300 g/ha, greenhouse, inoculated 1 day after spraying, rated six days after inoculation; 100 is total disease control, 0 is no disease control
Compound,CPM percent control [1] [%],RB percent control [2] [%]
CCCCCN1N=C(c2ccccc2)C(OC)NC1=O (racemic) [Compound 9],0,85
COC1NC(=O)N(C)N=C1c1ccc(Cl)cc1 (racemic) [Compound 12],0,80
COC1NC(=O)N(C(C)(C)C)N=C1c1ccc(Cl)cc1 (racemic) [Compound 14],50,90
CCCCCCCCCCN1N=C(c2ccc(Cl)cc2)C(OC)NC1=O (racemic) [Compound 17],0,80
COC1NC(=O)N(c2ccccc2)N=C1c1ccc(Cl)cc1 (racemic) [Compound 18],80,85
COC1NC(=O)N(CC(F)(F)F)N=C1c1ccc(Cl)cc1 (racemic) [Compound 20],0,80
"CCCCCN1N=C(c2ccc(Cl)cc2)C(OC)NC1=O (centres unmarked) [Compound 1, 2-pentyl-5-methoxy-6-(4-chlorophenyl)-4,5-dihydro-1,2,4-triazin-3-one]",0,85
"CCCCCn1nc(-c2ccc(Cl)cc2)cnc1=O [Compound 2, 2-pentyl-6-(4-chlorophenyl)-1,2,4-triazin-3-one]",50,85
"CCCCN1N=C(c2ccc(Cl)cc2)C(OC)NC1=O (centres unmarked) [Compound 3, 2-n-butyl-5-methoxy-6-(4-chlorophenyl)-4,5-dihydro-1,2,4-triazin-3-one]",0,85
"CCCCn1nc(-c2ccc(Cl)cc2)cnc1=O [Compound 4, 2-n-butyl-6-(4-chlorophenyl)-1,2,4-triazin-3-one]",0,85
"CCCCN1N=C(c2ccc(Cl)cc2)CN(S(C)(=O)=O)C1=O [Compound 5, 2-n-butyl-4-methanesulfonyl-6-(4-chlorophenyl)-4,5-dihydro-1,2,4-triazin-3-one]",90,0
"CCCCCn1nc(-c2ccc(OC)cc2)c(-c2ccc(OC)cc2)nc1=O [Compound 8, 2-n-pentyl-5,6-bis-(4-methoxyphenyl)-1,2,4-triazin-3-one]",0,50
CCCCCn1nc(-c2ccccc2)cnc1=O [Compound 10],0,80
Cn1nc(-c2ccc(Cl)cc2)cnc1=O [Compound 11],0,80
CC(C)(C)n1nc(-c2ccc(Cl)cc2)cnc1=O [Compound 13],0,85
O=C1NCC(c2ccc(Cl)cc2)=NN1c1ccccc1 [Compound 15],0,75
CS(=O)(=O)N1CC(c2ccc(Cl)cc2)=NN(c2ccccc2)C1=O [Compound 16],0,50
O=C1NCC(c2ccc(Cl)cc2)=NN1CC(F)(F)F [Compound 19],0,75
CN1CC(c2ccc(Cl)cc2)=NN(C#N)C1=O [Compound 27],0,50
C#CCN1N=C(c2ccc(Cl)cc2)CN(CCC)C1=O [Compound 28],0,50
CN1CC(c2ccccc2Cl)=NN(Cc2ccc(Cl)cc2)C1=O [Compound 29],,50
CN1CC(c2ccc(Cl)cc2)=NN(Cc2ccc(Cl)cc2)C1=O [Compound 30],,75
CCC#CCn1nc(-c2ccc(Cl)cc2)cnc1=O [Compound 31],50,85
CCC#CCN1CC(c2ccc(Cl)cc2)=NN(C)C1=O [Compound 32],75,75
CN1N=C(c2ccc(Cl)cc2)CNC1=O [Compound 33],0,80
CCCCCn1nc(-c2ccc(OC)cc2)cnc1=O [Compound 34],0,85
